According to patent US9192577B2, “Pharmaceutical compositions comprising a basic drug compound, a surfactant, and a physiologically tolerable water soluble acid” (Janssen Pharmaceutica NV, priority 2002, dated 2015):

Assays:
[1] = cytotoxicity (CC50) in mock-infected MT-4 cells (MTT); assay type: cell-based; conditions: human, mock-infected MT-4 cells, −log CC50, MTT
Method: (§1) A rapid, sensitive and automated assay procedure was used for the in vitro evaluation of anti-HIV agents. […] Inhibition of the HIV-induced cytopathic effect was used as the end point. The viability of both HIV- and mock-infected cells was assessed spectrophotometrically via the in situ reduction of 3-(4,5-dimethylthiazol-2-yl)-2,5-diphenyltetrazolium bromide (MTT). The 50% cytotoxic concentration (CC50 in M) was defined as the concentration of compound that reduced the absorbance of the mock-infected control sample by 50%. The percent protection achieved by the compound in HIV-infected cells was calculated by the following formula:
(§2) [formula] whereby (ODT)HIV is the optical density measured with a given concentration of the test compound in HIV-infected cells; (ODC)HIV is the optical density measured for the control untreated HIV-infected cells; (ODC)MOCK is the optical density measured for the control untreated mock-infected cells; all optical density values were determined at 540 nm. The dose achieving 50% protection according to the above formula was defined as the 50% inhibitory concentration (IC50 in M). The ratio of CC50 to IC50 was defined as the selectivity index (SI).

HIV = assay: in vitro anti-HIV assay: inhibition of HIV-induced cytopathic effect in MT-4 cells (MTT); assay type: cell-based; conditions: for pSI: pSI = pCC50-pIC50 (selectivity index CC50/IC50); for pIC50 (M): −log IC50
Method: as §1, §2

mock-infected MT-4 cells = assay: cytotoxicity (CC50) in mock-infected MT-4 cells (MTT); assay type: cell-based
Method: as §1, §2

[2] = effect of surfactant on solubility and stability of the supersaturated condition (0.01 N HCl, 37° C.); assay type: physicochemical
Method: Aqueous solutions of 2.5% (w/v) of hydroxypropyl-β-cyclodextrin (HPβCD), 2.5% (w/v) of Vit E TPGS [2], 2.5% (w/v) Cremophor RH 40 [3], 2.5% (w/v) of sodium lauryl sulfate or 2.5% (w/v) of PEG 4000 [5] in 0.01 N HCl at 37° C. were prepared.
To 10 ml of these solutions, with stirring, a concentrated solution of R278474 or R165335 in N,N-dimethylformamide (100 mg/ml) was added dropwise until precipitation of the drug compound was observed. After 5, 30, 60 and 120 minutes, the concentration of dissolved R278474 or R165335 expressed in mg % (i.e. the number of mg dissolved in 100 ml) was determined.

[3] = 50% protection against HIV-induced cytopathic effect in MT-4 cells, MTT
[4] = [1] 2.5% (w/v) HPβCD in 0.01 N HCl, 5 minutes
[5] = [1] 2.5% (w/v) HPβCD in 0.01 N HCl, 30 minutes
[6] = [1] 2.5% (w/v) HPβCD in 0.01 N HCl, 60 minutes
[7] = [1] 2.5% (w/v) HPβCD in 0.01 N HCl, 120 minutes
[8] = [5] 2.5% (w/v) PEG 4000 in 0.01 N HCl, 5 minutes
[9] = [5] 2.5% (w/v) PEG 4000 in 0.01 N HCl, 30 minutes
[10] = [5] 2.5% (w/v) PEG 4000 in 0.01 N HCl, 60 minutes
[11] = [5] 2.5% (w/v) PEG 4000 in 0.01 N HCl, 120 minutes

Row | SMILES | CC50 [1] [µM] | pSI (HIV) | pCC50 (M) (mock-infected MT-4 cells) | pIC50 (M) (HIV; [3]) | other results
1 | Cc1cc(-c2ccco2)cc(C)c1Nc1ccnc(Nc2ccc(C#N)cc2)n1 [Compound 3] | 3.16 | −2.9 |  |  | 
2 | CO/N=C(\c1cc(C)c(Nc2ccnc(Nc3ccc(C#N)cc3)n2)c(C)c1)C(C)C [Compound 9] | 15.8 | −4 |  |  | 
3 | C/C(C#N)=C/c1cc(C)c(Nc2ccnc(Nc3ccc(C#N)cc3)n2)c(C)c1 [Compound 11] | 2 | −3.5 |  |  | IC50 (HIV; Human immunodeficiency virus 1, MT4, −log IC50, 50% protection against HIV-induced cytopathic effect in MT-4 cells, MTT): 0.000631 µM
4 | Cc1cc(C(O)CC#N)cc(C)c1Nc1ccnc(Nc2ccc(C#N)cc2)n1 (stereo not shown) [Compound 18] | 12.6 | −4.0 |  |  | 
5 | Cc1cc(-c2ccsc2)cc(C)c1Nc1ccnc(Nc2ccc(C#N)cc2)n1 [Compound 21] | 12.6 | −3.5 |  |  | 
6 | Cc1cc(CCC#N)cc(C)c1Nc1ccnc(Nc2ccc(C#N)cc2)n1 [Compound 24] | 2 | −3.4 |  |  | 
7 | CC(=O)c1cccc(-c2cc(C)c(Nc3ccnc(Nc4ccc(C#N)cc4)n3)c(C)c2)c1 [Compound 34] | 15.8 | −3.2 |  |  | 
8 | Cc1cc(/C=C(\C#N)c2cccs2)cc(C)c1Nc1ccnc(Nc2ccc(C#N)cc2)n1 [Compound 49] | 15.8 | −3.2 |  |  | 
9 | Cc1cc(Cn2ccnc2)cc(C)c1Nc1ccnc(Nc2ccc(C#N)cc2)n1 [Compound 70] | 15.8 | −3.3 |  |  | 
10 | Cc1cc(CN2CCSC2)cc(C)c1Nc1ccnc(Nc2ccc(C#N)cc2)n1 [Compound 78] | 12.6 | −3.5 |  |  | 
11 | CCN(Cc1ccncc1)Cc1cc(C)c(Nc2ccnc(Nc3ccc(C#N)cc3)n2)c(C)c1 [Compound 79] | 5.01 | −2.7 |  |  | 
12 | Cc1cc(-n2cccc2)cc(C)c1Oc1ccnc(Nc2ccc(C#N)cc2)n1 [Compound 118] | 79.4 | <−4.1 |  |  | 
13 | Cc1cc(/C(Cl)=C\C#N)cc(C)c1Nc1ccnc(Nc2ccc(C#N)cc2)n1 [Compound 124] | 20 | −3.8 |  |  | 
14 | Cc1cc(/C=C/c2cccnc2)cc(C)c1Nc1ccnc(Nc2ccc(C#N)cc2)n1 [Compound 145] | 5.01 | −3.4 |  |  | 
15 | Cc1cc(/C=C/C(=O)N2CCN(C)CC2)cc(C)c1Nc1ccnc(Nc2ccc(C#N)cc2)n1 [Compound 155] | 0.501 | −2.5 |  |  | 
16 | Cc1cc(/C=C/C(=O)N2CCOCC2)cc(C)c1Nc1ccnc(Nc2ccc(C#N)cc2)n1 [Compound 156] | 7.94 | −2.6 |  |  | 

Row | SMILES | CC50 [1] [µM] | pSI (HIV) | pCC50 (M) (mock-infected MT-4 cells) | pIC50 (M) (HIV; [3]) | other results
17 | Cc1cc(/C=C/C(=O)N2CC=CC2)cc(C)c1Oc1ccnc(Nc2ccc(C#N)cc2)n1 [Compound 209] | 12.6 | −3.7 |  |  | 
18 | Cc1cc(C(C)CC#N)ccc1Oc1ccnc(Nc2ccc(C#N)cc2)n1 (stereo not shown) [Compound 235] |  | <−5.3 | <4.0 | 9.3 | 
19 | Cc1cc(CC(C)C#N)ccc1Oc1ccnc(Nc2ccc(C#N)cc2)n1 (stereo not shown) [Compound 236] |  | <−4.8 | <4.0 | 8.8 | 
20 | Cc1cc(/C=C/C#N)ccc1Nc1ccnc(Nc2ccc(C#N)cc2)n1 [Compound 237] |  | <−4.9 | <4.0 | 8.9 | 
21 | Cc1cc(CC#N)cc(Cl)c1Nc1ccnc(Nc2ccc(C#N)cc2)n1 [Compound 238] |  | −3.9 | 5.6 | 9.5 | 
22 | Cc1cc(/C=C/C#N)cc(-c2ccco2)c1Nc1ccnc(Nc2ccc(C#N)cc2)n1 [Compound 239] |  | −3.9 | 5 | 8.9 | 
23 | Cc1cc(CN(C)CCC#N)cc(Br)c1Nc1ccnc(Nc2ccc(C#N)cc2)n1 [Compound 241] |  | −4.1 | 5.3 | 9.4 | 
24 | N#C/C=C/c1ccc(Nc2ccnc(Nc3ccc(C#N)cc3)n2)c(Br)c1 [Compound 244] |  | −5.2 | 4 | 9.2 | 
25 | COc1cc(/C=C/C#N)ccc1Nc1ccnc(Nc2ccc(C#N)cc2)n1 [Compound 245] |  | −4.8 | 4 | 8.8 | 
26 | CC(C#N)=Cc1cc(C)c(Nc2ccnc(Nc3ccc(C#N)cc3)n2)c(Br)c1 [Compound 247] |  | −3 | 6.2 | 9.2 | 
27 | Cc1cc(/C=C/C#N)cc(Br)c1Nc1ccnc(Nc2ccc(C#N)cc2)n1 [Compound 248] |  | −3.5 | 5.7 | 9.3 | 
28 | COc1cc(C=C(C)C#N)ccc1Nc1ccnc(Nc2ccc(C#N)cc2)n1 [Compound 249] |  | −4.5 | 4 | 8.5 | 
29 | COc1cc(CCC#N)ccc1Nc1ccnc(Nc2ccc(C#N)cc2)n1 [Compound 251] |  | −3.9 | 5 | 8.9 | 
30 | Cc1cc(C#N)cc(C)c1Oc1nc(Nc2ccc(C#N)cc2)nc(N)c1Br [Compound R165335, 4-[[6-amino-5-bromo-2-[(4-cyanophenyl)amino]-4-pyrimidinyl]oxy]-3,5-dimethylbenzonitrile] |  |  |  |  | concentration of dissolved drug [2, 4]: 0.04 mg %; concentration of dissolved drug [2, 5]: 0.12 mg %; concentration of dissolved drug [2, 6]: 0.17 mg %; concentration of dissolved drug [2, 7]: 0.07 mg %; concentration of dissolved drug ([2]; [3] 2.5% (w/v) Cremophor RH 40 in 0.01 N HCl, 5 minutes): 54.20 mg %; concentration of dissolved drug ([2]; [3] 2.5% (w/v) Cremophor RH 40 in 0.01 N HCl, 30 minutes): 24.88 mg %; concentration of dissolved drug ([2]; [3] 2.5% (w/v) Cremophor RH 40 in 0.01 N HCl, 60 minutes): 20.06 mg %; concentration of dissolved drug ([2]; [3] 2.5% (w/v) Cremophor RH 40 in 0.01 N HCl, 120 minutes): 18.44 mg %; concentration of dissolved drug ([2]; [4] 2.5% (w/v) sodium lauryl sulfate in 0.01 N HCl, 5 minutes): 35.09 mg %; concentration of dissolved drug ([2]; [4] 2.5% (w/v) sodium lauryl sulfate in 0.01 N HCl, 30 minutes): 37.85 mg %; concentration of dissolved drug ([2]; [4] 2.5% (w/v) sodium lauryl sulfate in 0.01 N HCl, 60 minutes): 38.80 mg %; concentration of dissolved drug ([2]; [4] 2.5% (w/v) sodium lauryl sulfate in 0.01 N HCl, 120 minutes): 38.35 mg %; concentration of dissolved drug [2, 8]: 0.02 mg %; concentration of dissolved drug [2, 9]: 0.04 mg %; concentration of dissolved drug [2, 10]: 0.07 mg %; concentration of dissolved drug [2, 11]: 0.04 mg %
31 | Cc1cc(C=CC#N)cc(C)c1Nc1ccnc(Nc2ccc(C#N)cc2)n1 [Compound R278474, 4-[[4-[[4-(2-cyanoethenyl)-2,6-dimethylphenyl]amino]-2-pyrimidinyl]amino]benzonitrile] |  |  |  |  | concentration of dissolved drug ([2]; 0.01N HCl, 5 minutes): 18.02 mg %; concentration of dissolved drug ([2]; 0.01N HCl, 30 minutes): 16.30 mg %; concentration of dissolved drug ([2]; 0.01N HCl, 60 minutes): 15.90 mg %; concentration of dissolved drug ([2]; 0.01N HCl, 120 minutes): 15.95 mg %; concentration of dissolved drug [2, 4]: 27.68 mg %; concentration of dissolved drug [2, 5]: 24.80 mg %; concentration of dissolved drug [2, 6]: 24.40 mg %; concentration of dissolved drug [2, 7]: 24.10 mg %; concentration of dissolved drug ([2]; [2] 2.5% (w/v) Vit E TPGS in 0.01 N HCl, 5 minutes): 91.75 mg %; concentration of dissolved drug ([2]; [2] 2.5% (w/v) Vit E TPGS in 0.01 N HCl, 30 minutes): 83.50 mg %; concentration of dissolved drug ([2]; [2] 2.5% (w/v) Vit E TPGS in 0.01 N HCl, 60 minutes): 76.25 mg %; concentration of dissolved drug ([2]; [2] 2.5% (w/v) Vit E TPGS in 0.01 N HCl, 120 minutes): 75.25 mg %; concentration of dissolved drug [2, 8]: 23.60 mg %; concentration of dissolved drug [2, 9]: 21.60 mg %; concentration of dissolved drug [2, 10]: 20.60 mg %; concentration of dissolved drug [2, 11]: 20.10 mg %
